Source: paper PMC13619113 (Journal of controlled release : official journal of the …, 2023)

Legend:
Sprague-Dawley rats [1] = test: Blood glucose response after subcutaneous administration; assay type: in vivo, rat; settings: subcutaneous 1 IU/kg, fasted Sprague-Dawley rats, Fig. 7
[2] = system: 50:50 coculture of Caco-2:HT29-MTX cells
Sprague-Dawley rats [3] = test: Blood glucose response after intestinal closed-loop; assay type: in vivo, rat
[4] = rat, in vivo

| Substance | effect on blood glucose level (Sprague-Dawley rats [1]) | Papp × 10^−9 (cm/s) [2] | increase of the pharmacological availability over insulin (Sprague-Dawley rats [3]; 50 IU/kg to the small intestine, rat) [times] | effect on blood glucose level (Sprague-Dawley rats [3]; 50 IU/kg delivered directly to the ileum, Fig. 8) | AUC [4] [µg·h/mL] | BA (%) [4] [%] |
| --- | --- | --- | --- | --- | --- | --- |
| 1KPI: bovine insulin conjugated with 1000 da PEG via PEG nitrophenyl carbonate | effective at reducing the glucose levels below baseline throughout the testing period | 3.28 ± 0.88 × 10^−9 cm/s |  |  |  |  |
| 2KPI: bovine insulin conjugated with 2000 da PEG via PEG nitrophenyl carbonate, 1:1, at LysB29 |  | 2.90 ± 0.86 × 10^−9 cm/s | 2.8 |  |  |  |
| 5KPI: bovine insulin conjugated with 5000 da PEG via PEG nitrophenyl carbonate | least effect of the PEGylated insulin samples on blood glucose levels | 2.44 ± 0.06 × 10^−9 cm/s |  |  |  |  |
| Bovine insulin | effective at reducing the glucose levels below baseline throughout the testing period |  |  | limited hypoglycemic response | 12.61 ± 9.85 | 1.064 ± 0.83 |
